Like-named read-outs stand apart in the source and are kept apart here.
Tests used:
[1] = MIBC re-extraction (step #2) of layer from initial MIBC extraction (Example 4); format: physicochemical
Method: One part of the upper organic-rich upper layer from Example 3 was removed prior to distillation, extracted with one part by weight of MIBC solvent, by shaking for 3 minutes in a vial via mechanical shaker, followed by allowing to phase separate overnight at 25° C.
Extraction efficiency as measured by the partition coefficient K increased with increasing carbon number for the light alcohol. Glycols EG and PG were not extracted.

[2] = 3 min
Method: (§1) The reaction product mixture was extracted with one part of by weight solvent, with mixing for a minimum of three minutes, followed by phase separation overnight at 25° C.

[3] = Comparison of extraction solvents on simulated aqueous reaction product mixture (Examples 5A-5D)
Method: as §1

[4] = Extraction of phenols from 1% aqueous solution with toluene or heptane (Examples 5E-5H); conditions: for amount remaining in / lost to the aqueous phase: Ex 5F, 1% MPP in water extracted with heptane; for amount left in / lost to the aqueous layer: Ex 5G, 1% m-cresol solution extracted with toluene
[5] = Solubility of MPP in deionized water (turbidity); format: physicochemical; conditions: 1 wt % solution, room temperature

With `OCCO` [EG, ethylene glycol] the “Extr #2 % extract” value [1] was “not extracted”.
In the case of `CC(C)CC(C)O` (stereo not drawn) [MIBC, methylisobutylcarbinol], the “oil/water partition coefficient of extraction solvent components” value [2] is reported as 48.
For `CCCc1ccc(O)c(OC)c1` [MPP, 2-methoxy-4-propylphenol], the “partition coefficient for distribution of extraction solvent between organic and aqueous layers” value ([3]; Ex 5B, MPP as extraction solvent) was 612, the “oil/water partition coefficient of extraction solvent components” value ([3]; Ex 5C, MPP/MIBC mixture as extraction solvent) was 462 and the “partition coefficient, weight percent in organic layer extract vs. lower layer aqueous fraction” value ([4]; Ex 5E, 1 wt % MPP in water extracted with one part toluene) was 161.7. For the same compound, the “amount remaining in / lost to the aqueous phase” value [4] was 0.08 wt % and the “solubility in deionized water (turbidity)” value [5] was “only partial solubility”.
With `CC(O)CO` (stereo not drawn) [PG, 1,2-propylene glycol] the “Extr #2 % extract” value [1] was “not extracted”.
With `Cc1cccc(O)c1` [cresol, meta-cresol] the “amount left in / lost to the aqueous layer” value [4] was 0.05 wt %.
In the case of `CCCCCCC` [heptane], the “amount remaining in / lost to the aqueous phase” value [4] is reported as 0.07 wt % and the “lost to the aqueous layer” value ([4]; Ex 5H, 1% m-cresol solution extracted with heptane) is reported as 0.015%.
In the case of `Cc1ccccc1` [toluene], the “amount left in / lost to the aqueous layer” value [4] is reported as 0.04 wt %.
